Here are results for 27 compounds from US20240287080A1 (IDEAYA Biosciences Inc., priority 2021, published 2024).

Molecules are shown by their SMILES.

The target of the first test is T1, Pol theta (1-899) (Homo sapiens, UniProt O75417).
T1 construct: Pol theta (1-899) (5 nM) in assay buffer
T1 sequence (O75417 1-899): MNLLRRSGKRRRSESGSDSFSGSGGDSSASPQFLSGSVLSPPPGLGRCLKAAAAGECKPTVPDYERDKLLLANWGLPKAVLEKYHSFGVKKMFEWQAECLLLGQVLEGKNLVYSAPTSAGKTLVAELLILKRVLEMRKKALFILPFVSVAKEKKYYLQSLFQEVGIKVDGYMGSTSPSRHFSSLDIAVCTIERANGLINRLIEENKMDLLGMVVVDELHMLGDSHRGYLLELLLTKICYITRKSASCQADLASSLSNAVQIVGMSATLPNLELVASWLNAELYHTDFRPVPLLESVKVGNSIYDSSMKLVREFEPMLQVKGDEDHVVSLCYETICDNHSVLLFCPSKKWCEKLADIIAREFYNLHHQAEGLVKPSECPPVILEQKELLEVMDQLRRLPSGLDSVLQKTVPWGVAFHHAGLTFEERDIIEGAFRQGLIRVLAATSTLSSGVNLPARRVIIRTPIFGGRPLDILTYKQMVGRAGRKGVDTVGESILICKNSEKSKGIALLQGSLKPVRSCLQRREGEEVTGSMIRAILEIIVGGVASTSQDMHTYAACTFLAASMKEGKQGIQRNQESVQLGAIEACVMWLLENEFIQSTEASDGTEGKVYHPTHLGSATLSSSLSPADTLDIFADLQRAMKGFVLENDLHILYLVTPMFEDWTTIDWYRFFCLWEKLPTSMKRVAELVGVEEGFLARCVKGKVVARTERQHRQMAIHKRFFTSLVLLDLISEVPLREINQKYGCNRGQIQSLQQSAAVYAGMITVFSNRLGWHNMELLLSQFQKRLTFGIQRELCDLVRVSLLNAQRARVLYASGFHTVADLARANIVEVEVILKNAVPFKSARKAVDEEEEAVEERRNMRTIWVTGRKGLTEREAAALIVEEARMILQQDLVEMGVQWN
In words: Pol theta ATPase activity, NADH oxidation-coupled enzymatic assay (ATPase NADH coupling: Standard Screening: hPolQ). Format: biochemical. The settings on record: Table 4; Pol theta (1-899) 5 nM, ATP, dT50 ssDNA. In short, it runs like this:
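NADH-coupled ATPase readout: 5 nM Pol theta (1-899) preincubated 15 min with 10-point compound series in Tris pH 7.80, KCl, MgCl2, DTT, BSA, Tween, glycerol, then 100 μM ATP, 300 nM 50-mer poly-dT ssDNA, NADH, PEP, LDH and PK added (stock levels). A340 followed 60 min; slopes fit four-parameter for IC50.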
The IC50 is the concentration at which inhibition is half-maximal. A lower IC50 goes with inhibition by little substance. In the case of `COc1nnc(NC(=O)c2cnc(C)cc2-c2c(OC)cnc(C)c2F)s1` [Example 61, 3′-fluoro-5′-methoxy-N-(5-methoxy-1,3,4-thiadiazol-2-yl)-2′,6-dimethyl-(4,4′-bipyridine)-3-carboxamide], the half-inhibitory concentration (IC50) is ≤ 0.2 µM.
On the same count and under the same terms, the same measure for `Cc1cc(-c2cc(Cl)ncc2OC(F)F)c(C(=O)Nc2nnc(OC3COC3)s2)cn1` [Example 62, 2′-chloro-5′-(difluoromethoxy)-6-methyl-N-(5-(oxetan-3-yloxy)-1,3,4-thiadiazol-2-yl)-(4,4′-bipyridine)-3-carboxamide]: ≤ 0.2 µM; for `COc1nnc(NC(=O)c2cnc(C)cc2-c2cc(Br)ncc2OC)s1` [Example 63, 2′-bromo-5′-methoxy-N-(5-methoxy-1,3,4-thiadiazol-2-yl)-6-methyl-(4,4′-bipyridine)-3-carboxamide]: ≤ 0.2 µM; for `COc1nnc(NC(=O)c2cnc(CO)cc2-c2cc(Cl)ncc2OC)s1` [Example 64, 2′-chloro-6-(hydroxymethyl)-5′-methoxy-N-(5-methoxy-1,3,4-thiadiazol-2-yl)-(4,4′-bipyridine)-3-carboxamide]: ≤ 0.2 µM.
Take `COc1nnc(NC(=O)c2c[n+]([O-])c(C)cc2-c2cc(Cl)ncc2OC)s1` [Example 65, 2′-chloro-5′-methoxy-5-((5-methoxy-1,3,4-thiadiazol-2-yl)carbamoyl)-2-methyl-(4,4′-bipyridine) 1-oxide]: the IC50 is 0.5 to 1 µM.
The compound `COc1nnc(NC(=O)c2cnc(C)cc2-c2cc(Cl)ccc2CO)s1` [Example 66, 4-(5-chloro-2-(hydroxymethyl)phenyl)-N-(5-methoxy-1,3,4-thiadiazol-2-yl)-6-methylnicotinamide] displayed an IC50 of 0.2 to 0.5 µM.
As to `COc1nnc(NC(=O)c2cnc(C)cc2-c2cc3[nH]ncc3cc2OC)s1` [Example 67, N-(5-methoxy-1,3,4-thiadiazol-2-yl)-4-(5-methoxy-1H-indazol-6-yl)-6-methylnicotinamide], the IC50 lay within 1 to 10 µM.
Take `COc1nnc(NC(=O)c2cnc(C)cc2-c2cc(C(F)F)ncc2OC)s1` [Example 70, 2′-(difluoromethyl)-5′-methoxy-N-(5-methoxy-1,3,4-thiadiazol-2-yl)-6-methyl-(4,4′-bipyridine)-3-carboxamide]: the IC50 is ≤ 0.2 µM.
The same measure, in the same setting: for `COc1nnc(NC(=O)c2cnc(C)cc2-c2cc3[nH]cnc3cc2OC)s1` [Example 71, N-(5-methoxy-1,3,4-thiadiazol-2-yl)-4-(5-methoxy-1H-benzo(d)imidazol-6-yl)-6-methylnicotinamide] the value was 1 to 10 µM.
On to `COc1nnc(NC(=O)c2cnc(C)cc2-c2cc(Cl)ncc2CO)s1` [Example 72, 2′-chloro-5′-(hydroxymethyl)-N-(5-methoxy-1,3,4-thiadiazol-2-yl)-6-methyl-(4,4′-bipyridine)-3-carboxamide], for which the IC50 was in the range of 0.5 to 1 µM.
As to `COc1nnc(NC(=O)c2cnc(C)cc2-c2cc(N)ncc2OC)s1` [Example 73, 2′-amino-5′-methoxy-N-(5-methoxy-1,3,4-thiadiazol-2-yl)-6-methyl-(4,4′-bipyridine)-3-carboxamide], the IC50 was 0.5 to 1 µM.
Regarding `COc1cnc(Cl)cc1-c1cc(C)ncc1C(=O)Nc1nnc(OCC2CCOC2C)s1` (stereo not drawn) [Example 74, 2′-chloro-5′-methoxy-6-methyl-N-(5-((2-methyltetrahydrofuran-3-yl)methoxy)-1,3,4-thiadiazol-2-yl)-(4,4′-bipyridine)-3-carboxamide], the half-maximal inhibitory concentration (IC50) is ≤ 0.2 µM.
With `COc1nnc(NC(=O)c2cnc(C)cc2-c2ccnc(Cl)c2)s1` [Example 75, 2′-chloro-N-(5-methoxy-1,3,4-thiadiazol-2-yl)-6-methyl-(4,4′-bipyridine)-3-carboxamide], the IC50 is ≤ 0.2 µM.
For the compound `COCCOc1nnc(NC(=O)c2ccncc2-c2ccccc2OC)s1` [Example 78], the IC50 is 0.5 to 1 µM.

The test is the same for the next values; noted with them: Table 5; Pol theta (1-899) 5 nM, ATP, dT50 ssDNA.
The compound `COc1nnc(NC(=O)c2cnc(C)cc2-c2c(OC)cnc(Cl)c2C)s1` [Example 79, 2′-chloro-5′-methoxy-N-(5-methoxy-1,3,4-thiadiazol-2-yl)-3′,6-dimethyl-(4,4′-bipyridine)-3-carboxamide] had an IC50 of 0.2 to 0.5 µM.
In the case of `COc1cnc(Cl)c(F)c1-c1cc(C)ncc1C(=O)Nc1nnc(O[C@@H]2CCOC2)s1` [Example 80, 2′-chloro-3′-fluoro-5′-methoxy-6-methyl-N-(5-(((R)-tetrahydrofuran-3-yl)oxy)-1,3,4-thiadiazol-2-yl)-(4,4′-bipyridine)-3-carboxamide], the 50% inhibitory concentration (IC50) is ≤ 0.2 µM.
Same read-out and setting: for `COc1cnc(Cl)c(F)c1-c1cc(C)ncc1C(=O)Nc1nnc(O[C@H]2CCOC2)s1` [Example 81, 2′-chloro-3′-fluoro-5′-methoxy-6-methyl-N-(5-(((S)-tetrahydrofuran-3-yl)oxy)-1,3,4-thiadiazol-2-yl)-(4,4′-bipyridine)-3-carboxamide] the value was ≤ 0.2 µM; for `Cc1cc(-c2cc(Cl)ncc2OC(F)F)c(C(=O)Nc2nnc(O[C@@H]3CCOC3)s2)cn1` [Example 82, (R)-2′-chloro-5′-(difluoromethoxy)-6-methyl-N-(5-((tetrahydrofuran-3-yl)oxy)-1,3,4-thiadiazol-2-yl)-(4,4′-bipyridine)-3-carboxamide], ≤ 0.2 µM.
For the compound `Cc1cc(-c2cc(Cl)ncc2OC(F)F)c(C(=O)Nc2nnc(O[C@H]3CCOC3)s2)cn1` [Example 83, (S)-2′-chloro-5′-(difluoromethoxy)-6-methyl-N-(5-((tetrahydrofuran-3-yl)oxy)-1,3,4-thiadiazol-2-yl)-(4,4′-bipyridine)-3-carboxamide], the IC50 is ≤ 0.2 µM.
`COc1cnc(Br)cc1-c1cc(C)ncc1C(=O)Nc1nnc(O[C@@H]2CCOC2)s1` [Example 84]: the IC50 is ≤ 0.2 µM.
Take `COc1nnc(NC(=O)c2cnc(C)cc2-c2cccn3nnnc23)s1` [Example 85, N-(5-methoxy-1,3,4-thiadiazol-2-yl)-6-methyl-4-(tetrazolo(1,5-a)pyridin-8-yl)nicotinamide]: the IC50 is 1 to 10 µM.
`COc1nnc(NC(=O)c2cnc(C)cc2-c2ccnc3nccn23)s1` [Example 88, 4-(imidazo(1,2-a)pyrimidin-5-yl)-N-(5-methoxy-1,3,4-thiadiazol-2-yl)-6-methylnicotinamide]: the IC50 was 1 to 10 µM.
Still for that read-out and setting: the same measure for `COc1nnc(NC(=O)c2cnc(C)cc2-c2ccnc3ncnn23)s1` [Example 91, 4-((1,2,4)triazolo(1,5-a)pyrimidin-7-yl)-N-(5-methoxy-1,3,4-thiadiazol-2-yl)-6-methylnicotinamide]: 1 to 10 µM; for `COc1nnc(NC(=O)c2cnc(C)cc2-c2ccnc(Cl)c2)s1` [Example 100, 2′-chloro-N-(5-methoxy-1,3,4-thiadiazol-2-yl)-6-methyl-(4,4′-bipyridine)-3-carboxamide]: 0.2 to 0.5 µM.
As to `COc1nnc(NC(=O)c2cnc(C)cc2-c2ccncc2OC)s1` [Example 101, 3′-methoxy-N-(5-methoxy-1,3,4-thiadiazol-2-yl)-6-methyl-(4,4′-bipyridine)-3-carboxamide], the IC50 fell in the range of 1 to 10 µM.
`COc1nnc(NC(=O)c2cnc(C)cc2-c2cccc(Cl)c2)s1` [Example 102, 4-(3-chlorophenyl)-N-(5-methoxy-1,3,4-thiadiazol-2-yl)-6-methylnicotinamide]: the IC50 fell in the range of 0.2 to 0.5 µM.

Staying with this test, now noted: Table 5; values given as bound; Pol theta (1-899) 5 nM, ATP, dT50 ssDNA.
As for `COc1nnc(NC(=O)c2cnc(C)cc2-c2cccc3scnc23)s1` [Example 98, 4-(benzo(d)thiazol-4-yl)-N-(5-methoxy-1,3,4-thiadiazol-2-yl)-6-methylnicotinamide], the IC50 was > 10 µM.
